Measurements reported in patent US10662194B2, “Substituted 6-anilino-9-heterocyclylpurine derivatives for inhibition of plant stress” (UNIVERZITA PALACKEHO V OLOMOUCI, priority 2014, dated 2020).
Where two headings read alike, the source gives them in different places.

Key:
[1] = tested on: CKX1 overproducing (35S:CKX1) Arabidopsis seedlings; experiment: In vitro shoot and root growth of cytokinin deficient Arabidopsis plants; assay type: in vivo; details: for complementation of wild type shoot phenotype: 0.1 μM in MS medium, FIG. 3, 4
Source text: Constitutive overexpression of CKX in 35S:CKX1 plants leads to enhanced root growth. If CKX inhibitor can restore WT phenotype, it is expected that inhibition of the CKX activity in 35S:AtCKX1 plants should thus have no effect or inhibit their root growth. Such observation was done in case of INCYDE, but not compound 12.

[2] = tested on: wild-type Arabidopsis plants; experiment: In vitro root growth of wild-type Arabidopsis plants; assay type: in vivo; details: 0.1 μM in MS medium, FIG. 6
Description: As shown in previous example presence of compound 12 in the growth medium has positive effect on the root growth of cytokinin-deficient Arabidopsis plants. This effect was further studied using wild-type Arabidopsis plants and compared with biologically and structurally relevant compounds, a cytokinin BAP and a CKX inhibitor INCYDE. […] Arabidopsis seedlings were grown in vitro on a standard MS medium containing 0.1 μM cytokinin BAP, the same concentration of compound 12 and the same concentration of CKX inhibitor INCYDE (2-chloro-6-(3-methoxyanilino)purine).

recombinant AtCKX2 = target: T1, recombinant AtCKX2 (Arabidopsis thaliana, UniProt Q9FUJ3); experiment: Inhibition of cytokinin oxidase/dehydrogenase activity (PMS/MTT microtitre assay); assay type: biochemical
T1 construct: made in house; host or cells: S. cerevisiae strain 23344c ura-
T1 sequence (Q9FUJ3 23-501): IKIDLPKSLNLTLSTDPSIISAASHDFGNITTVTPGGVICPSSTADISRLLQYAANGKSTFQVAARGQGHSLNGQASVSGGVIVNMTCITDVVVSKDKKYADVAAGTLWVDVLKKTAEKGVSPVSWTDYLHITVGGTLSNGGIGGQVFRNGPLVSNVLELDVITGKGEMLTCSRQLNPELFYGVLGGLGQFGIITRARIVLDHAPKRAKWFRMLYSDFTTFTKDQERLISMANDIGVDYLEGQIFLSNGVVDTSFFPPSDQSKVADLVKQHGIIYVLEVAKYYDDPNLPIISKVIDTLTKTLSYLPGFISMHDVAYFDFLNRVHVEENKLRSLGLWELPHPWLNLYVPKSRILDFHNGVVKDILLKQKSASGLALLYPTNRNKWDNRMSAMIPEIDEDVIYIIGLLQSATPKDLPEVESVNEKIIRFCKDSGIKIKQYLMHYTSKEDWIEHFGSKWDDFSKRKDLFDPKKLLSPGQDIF
Description: IC50 measurements were done using the assay in microtitre plate. Each well contained 100 μL of PMS/MTT [phenazine methosulfate/3-(4,5-dimethylthiazol-2-yl)-2,5-diphenyltetrazolium bromide] reaction mixture (final concentrations: 0.1 M KH2PO4, pH 7.4, 1 mM MTT, 0.2 mM PMS) containing the tested compound (3×10^−7 M-3×10^−4 M) and 30 μM N^6-isopentenyladenine (iP) as a substrate. 100 μL of cell-free growth medium of S. cerevisiae strain 23344c ura^− harboring the plasmid pYES2-AtCKX2 was directly used as a source of AtCKX2. Plates were incubated in the dark for 30 min at 37° C. and the enzymatic reaction was stopped by 25 μL of 35% acetic acid. The absorbance at 578 nm was measured using spectrophotometer Tecan. Absorbance of the sample without iP was subtracted.
The IC50 value, the compound concentration that inhibits the enzyme activity to 50%, was calculated from the obtained dose response curves. The values shown in Table 7 are means of three replicates and the entire test was repeated at least twice. […] Compound 12 is an effective inhibitor of AtCKX2 activity, app. 3-times stronger that thidiazuron and only app. 3-times weaker than the structurally related compound INCYDE (2-chloro-6-(3-methoxyanilino)purine).

AHK3 = target: T2, AHK3 (Arabidopsis thaliana, UniProt Q9C5U1); experiment: Escherichia coli cytokinin receptor activation assay (AHK3); assay type: cell-based; details: 10^−7 M-5×10^−5 M, compared to trans-zeatin, FIG. 1
T2 construct: expressed in transfected cells; host or cells: Escherichia coli strain KMI001
T2 sequence (Q9C5U1 1-1036): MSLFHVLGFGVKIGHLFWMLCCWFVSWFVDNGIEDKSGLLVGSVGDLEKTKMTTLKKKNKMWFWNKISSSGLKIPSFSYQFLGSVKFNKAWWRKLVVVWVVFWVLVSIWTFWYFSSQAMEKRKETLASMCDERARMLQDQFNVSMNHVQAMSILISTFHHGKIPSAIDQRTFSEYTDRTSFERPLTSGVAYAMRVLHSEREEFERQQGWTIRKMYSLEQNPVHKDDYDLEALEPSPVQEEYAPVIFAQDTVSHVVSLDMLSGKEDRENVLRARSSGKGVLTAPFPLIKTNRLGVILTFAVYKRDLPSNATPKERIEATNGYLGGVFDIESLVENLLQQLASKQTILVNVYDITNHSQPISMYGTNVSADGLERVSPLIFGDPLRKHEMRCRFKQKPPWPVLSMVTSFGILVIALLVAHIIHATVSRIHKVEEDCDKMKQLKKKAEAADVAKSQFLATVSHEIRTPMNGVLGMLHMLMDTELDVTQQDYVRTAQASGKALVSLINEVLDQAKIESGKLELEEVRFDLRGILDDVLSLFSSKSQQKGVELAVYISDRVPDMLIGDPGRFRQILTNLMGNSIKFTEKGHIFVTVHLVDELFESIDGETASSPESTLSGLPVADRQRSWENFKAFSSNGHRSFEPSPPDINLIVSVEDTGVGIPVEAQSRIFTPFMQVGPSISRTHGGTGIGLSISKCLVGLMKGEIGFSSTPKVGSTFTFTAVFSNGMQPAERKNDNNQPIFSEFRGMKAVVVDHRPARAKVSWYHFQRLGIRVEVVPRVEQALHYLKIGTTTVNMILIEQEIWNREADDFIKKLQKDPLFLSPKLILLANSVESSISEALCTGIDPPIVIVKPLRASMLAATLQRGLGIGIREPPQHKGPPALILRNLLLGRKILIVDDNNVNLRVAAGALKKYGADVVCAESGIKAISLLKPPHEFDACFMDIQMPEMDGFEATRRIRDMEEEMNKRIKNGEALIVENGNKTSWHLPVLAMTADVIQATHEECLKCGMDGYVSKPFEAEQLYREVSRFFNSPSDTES
Description: (§1) Escherichia coli strains KMI001 harbouring the plasmid pIN-III-AHK4 or pSTV28-AHK3 were grown overnight at 25° C. in M9 media enriched with 0.1% casamino acids to OD600˜1. The preculture was diluted 1:600 in 1 ml M9 medium containing 0.1% casamino acids and 1 μL stock solution of either the tested compound (10^−7 M-5×10^−5 M) or solvent control (DMSO, ethanol, methanol) were added. The cultures were further grown at 25° C. in microtiter plate, 200 μL per well. […] The cultures were centrifuged and 50 μL aliquots of the supernatant were transferred to microtiter plate containing 2 μL 50 mM 4-methyl umbelliferyl galactoside which was subsequently incubated for 1 h at 37° C. The reaction was stopped by adding 100 μL 0.2 M Na2CO3. Fluorescence was measured using a Fluoroscan Ascent (Labsystems, Finland) at the excitation and emission wavelengths of 365 and 460 nm, respectively. The OD600 of remaining culture was determined and β-galactosidase activity was calculated as nmol 4-methylumbelliferone×OD600^−1×h^−1.

ARR5:GUS reporter gene = experiment: Induction of cytokinin reporter ARR5:GUS in transgenic Arabidopsis plants; assay type: in vivo; details: 0.01-10 μM, 17 h, FIG. 2
Description: Cytokinins induce in Arabidopsis transcription of gene ARR5, a member of A-type response regulator family classified as cytokinin primary response genes being expressed down-stream of sensing by cytokinin receptors. We cultivated transgenic Arabidopsis plants harbouring PARR5::GUS reporter (D'Agostino et al. Plant Physiol. 124: 1706-1717, 2000) in MS medium containing cytokinin BAP, CKX inhibitor INCYDE and novel compounds 12 and 91 in concentrations 0.01, 0.1, 1, 5, 10 μM; DMSO (0.1%) was tested as solvent control. Seeds were surface-sterilized in 70% ethanol and then placed into wells of 6-well microtiter plate (TPP, Switzerland) containing 3 mL of MS medium in each well. After sowing plates were pretreated in dark at 4° C. to synchronize the germination of the seeds. […] Quantitative estimation of the level of ARR5:GUS gene induction was done according to method published by Romanov et al. (Romanov et al. FEBS Letters 515: 39-43, 2002). After extraction of proteins the GUS activity was determined using incubation with fluorogenic substrate MUG (4-methylumbelliferyl glucuronid; 1 h, 37° C.) and then fluorescence 365 nm and 460 nm (excitation and emission wavelengths) was recorded, as described in detail by Spíchal et al. (Spíchal et al. Plant and Cell Physiology 45: 1299-1305, 2004).

CRE1/AHK4 = target: T3, CRE1/AHK4 (Arabidopsis thaliana, UniProt Q9C5U0); experiment: Escherichia coli cytokinin receptor activation assay (CRE1/AHK4); assay type: cell-based; details: 10^−7 M-5×10^−5 M, compared to trans-zeatin, FIG. 1
T3 construct: expressed in transfected cells; host or cells: Escherichia coli strain KMI001
T3 sequence (Q9C5U0 whole entry): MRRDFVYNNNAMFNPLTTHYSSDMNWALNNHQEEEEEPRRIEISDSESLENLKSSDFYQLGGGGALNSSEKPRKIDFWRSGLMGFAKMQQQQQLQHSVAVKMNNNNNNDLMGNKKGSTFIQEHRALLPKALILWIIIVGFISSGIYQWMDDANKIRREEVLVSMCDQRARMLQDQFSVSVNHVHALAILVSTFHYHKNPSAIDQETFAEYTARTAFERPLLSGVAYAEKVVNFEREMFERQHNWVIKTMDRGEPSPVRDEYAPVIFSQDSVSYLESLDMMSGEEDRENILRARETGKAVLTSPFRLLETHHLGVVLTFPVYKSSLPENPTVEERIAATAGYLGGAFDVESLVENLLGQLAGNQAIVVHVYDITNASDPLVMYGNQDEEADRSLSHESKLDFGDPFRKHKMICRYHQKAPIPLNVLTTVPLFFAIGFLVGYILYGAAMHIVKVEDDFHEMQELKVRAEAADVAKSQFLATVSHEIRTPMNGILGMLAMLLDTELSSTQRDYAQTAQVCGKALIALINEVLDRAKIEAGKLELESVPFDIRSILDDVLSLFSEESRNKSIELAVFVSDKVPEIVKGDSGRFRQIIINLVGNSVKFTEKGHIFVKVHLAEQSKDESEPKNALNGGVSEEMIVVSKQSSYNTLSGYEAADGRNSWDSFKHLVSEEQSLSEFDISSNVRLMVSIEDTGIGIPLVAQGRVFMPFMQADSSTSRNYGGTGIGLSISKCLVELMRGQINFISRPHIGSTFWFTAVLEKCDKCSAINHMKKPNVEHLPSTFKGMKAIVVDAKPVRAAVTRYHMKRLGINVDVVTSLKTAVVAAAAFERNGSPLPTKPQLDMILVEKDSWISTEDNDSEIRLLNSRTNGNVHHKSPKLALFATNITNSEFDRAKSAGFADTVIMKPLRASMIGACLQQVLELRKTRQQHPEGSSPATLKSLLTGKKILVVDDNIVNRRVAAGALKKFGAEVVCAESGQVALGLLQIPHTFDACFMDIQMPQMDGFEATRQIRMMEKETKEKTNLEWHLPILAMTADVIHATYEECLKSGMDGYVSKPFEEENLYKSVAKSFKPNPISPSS
Description: as §1

[3] = 30 μM iP substrate, 30 min, 37° C., read-out: IC50

Structure (SMILES) | complementation of wild type shoot phenotype [1] | root growth [2] | IC50 (recombinant AtCKX2; [3]) [µM] | further results
c1ccc(CNc2ncnc3nc[nH]c23)cc1 [BAP, 6-benzylaminopurine] | cannot be reached | inhibited root growth | – | –
COc1cccc(Nc2nc(Cl)nc3nc[nH]c23)c1 [INCYDE, 2-chloro-6-(3-methoxyanilino)purine] | led to restauration of wild type shoot phenotype | inhibited root growth | 6.7 | root biomass of 35S:CKX1 plants ([1]; tested concentration range, FIG. 5): did not influence the root biomass
COc1cccc(Nc2nc(F)nc3[nH]cnc23)c1 [INCYDE-F, 2-fluoro-6-(3-methoxyanilino)purine, reference compound] | – | – | 5.2 | –
COc1cccc(Nc2nc(F)nc3c2ncn3C2CCCCO2)c1 (stereo not drawn) [compound 91, 2-fluoro-6-(3-methoxyanilino)-9-(tetrahydropyran-2-yl)purine] | – | – | 380 | ability to activate cytokinin receptor AHK3 (AHK3): do not activate any of the receptors; induction of ARR5:GUS expression (ARR5:GUS reporter gene): dose-dependent induction of ARR5:GUS expression; ability to activate cytokinin receptor CRE1/AHK4 (CRE1/AHK4): do not activate any of the receptors
O=C(Nc1ccccc1)Nc1cnns1 [thidiazuron, reference compound] | – | – | – | IC50 (recombinant AtCKX2): 55 µM
